Results: article PMC8911640, “Synthesis and Structure–Activity Relationship of Thioacetamide-Triazoles against Escherichia coli” (Molecules, 2022)
Converted amounts (≈) assume the structure as drawn. “And” between values parts separate entries of the source, which are not always exact repeats. Identical values can stand only once. Like-named read-outs stand apart in the source and are kept apart here.

Assays:
Plasma stability (mouse) = format: in vitro ADME; conditions: read-out: Plasma Stability (Mouse) t1/2 (converted)
Experimental: (§1) The in vitro ADME values (solubility, mouse plasma stability, human plasma stability, mouse metabolic stability, and human metabolic stability) were determined as previously reported.

[1] = Metabolic (microsomal) stability (human); format: in vitro ADME; conditions: microsomes; for half-life: read-out: Metabolic Stability (Human) t1/2 (converted)
Experimental: as §1

[2] = Metabolic (microsomal) stability (mouse); format: in vitro ADME; conditions: microsomes; for half-life: read-out: Metabolic Stability (Mouse) t1/2 (converted)
Experimental: as §1

Plasma stability (human) = format: in vitro ADME; conditions: read-out: Plasma Stability (Human) t1/2 (converted)
Experimental: as §1

Solubility = format: physicochemical; conditions: for solubility: pH 7.4, aqueous buffer
Experimental: as §1

E. coli K12 MG1655 = assay: MIC testing by CLSI broth microdilution in M9-based minimal media ATCC 2511, with or without methionine; format: cell-based, Escherichia coli; conditions: for MIC90: Escherichia coli; for antibacterial activity against E. coli in words: E. coli K12
Experimental: To explore the SAR around the right hand aryl portion of the TAT series (Table 1), compounds were evaluated for their in vitro antibacterial activity against E. coli in the M9-based minimal media ATCC 2511. […]. An MIC shift between the two medias was used to indicate that antibacterial activity of the compounds remained on target, and this was happily seen with all of the most MIC active compounds generated in this study. Within the first series of compounds in Table 1, modifications to the phenyl ring are generally well tolerated. MICs remain within 2-fold of the initial hit 1 for the fluoro- and cyano- substituted compounds 1–8. […]. Incorporating the electron-donating group -OMe and sterically bulky iodine group in both ortho and para position, 17–20, maintained activity, whereas the introduction of the strong electron-withdrawing -CF3 group, 21 and 22, led to poorer MIC activity. […] The phenyl ring isosteres—thiazoles 25 and 26—both retained good MIC activity. Adding a methyl branch to the thioacetamide linker 28 and 29 led to a striking loss of activity. Replacement of the aryl group with the aliphatic groups cyclohexyl 31, cyclopentyl 32, tert-butyl groups 33 all reduced activity.
MICs were determined following CLSI broth microdilution susceptibility M100 guidelines. Compound solutions were prepared in DMSO and serially diluted 1:2 in 100 μL/well in 96 well round-bottom plates. E. coli K12 MG1655 was acquired from ATCC and strictly maintained in the M9-based media ATCC 2511. ATCC 2511 was also used for all further cultivation and MIC testing. Bacteria were grown from a single colony to a mid-log OD600 and frozen in 0.5 mL aliquots. These aliquots were used to directly inoculate the assay plates by diluting to an OD600 of 0.001 and plating 100 μL per well, allowing for ~10^5 CFU to be added to each well.

[3] = Pharmacokinetic evaluation in mice, single intravenous dose; format: in vivo; conditions: 10 mg/kg, plasma
Experimental: Pharmacokinetic parameters of 25 in plasma following a single intravenous dose of 10mg/kg administration to male Balb/c mice were done at SAI LifeSciences Ltd., Telangana, India (Table S2). Briefly, nine male mice were used in this study. All the animals were administered with 25 solution formulation in 5% NMP, 5% Solutol HS-15 and 90% Normal saline intravenously at 10 mg/kg dose. Blood samples (~60 μL) were collected from retro orbital plexus under light isoflurane anesthesia at following time points at Pre-dose, 0.08, 0.25, 0.5, 1, 2, 4, 8 and 24 h. Blood samples were collected from a set of three mice at each time point (sparse sampling) in labeled microcentrifuge tube containing 20% K2EDTA solution as anticoagulant. Plasma samples were separated by centrifugation of whole blood and stored below −70 ± 10 °C until bioanalysis. All samples were processed for analysis by protein precipitation using acetonitrile (ACN) and analyzed with fit-for-purpose LC/MS/MS method (LLOQ: 5.04 ng/mL). Pharmacokinetic parameters were calculated using the non-compartmental analysis tool of Phoenix WinNonlin (Version 7.0). All procedures of the study were in accordance with the guidelines provided by the Committee for the Purpose of Control and Supervision of Experiments on Animals (CPCSEA) as published in The Gazette of India, 15 December 1998. Prior approval of the Institutional Animal Ethics Committee (IAEC) was obtained before initiation of the study.

E. coli K12 = assay: Whole cell accumulation in E. coli K12 (LC-MS/MS); parameters: dose or concentration left out as unconfirmed; conditions: 10 min, 37 °C; average of three biological replicates
Experimental: Drug uptake in whole cell E. coli K12, was performed following a modified protocol adapted from previously published studies [17, 25, 26, 27]. […] After incubation, 800 mL of antibiotic-exposed cells were spun (3 min, 13,000× g) through 700 mL of a 9:1 mix of AR20 and high temperature silicon oils (cooled to −80°C). The supernatant of silicone oil and free compound in PBS was carefully removed from pellet. Intracellular concentration of antibiotics within the bacterial cells was then determined.
For lysis, cells were resuspended in 200 mL of water and lysed by three freeze-thaw cycles of 3 min each in liquid nitrogen and in a 60 °C water bath. Lysed cells were pelleted and 150 mL of aqueous extract was transferred to a clean 1.5 mL microcentrifuge tube. Cell debris was resuspended in the remaining 50 mL of water and then extracted with 100 mL of methanol. Cells were again centrifuged, 100 mL of the methanol extract were removed and combined with the water supernatant. The extracts were allowed to rest at room temperature for 1 h before being centrifuged for 10 min at 20,000× g. Finally, extracts were filtered through a 0.22mm spin column to remove any remaining cellular debris.
Samples were analyzed with a Waters Acquity M Class series UPLC system and Xevo G2 QTOF tandem MS/MS with Zspray. Using a Phenomenex Kinetex 2.6 μm XB-C18, 100 Å (300 μm × 150 mm) column with solvent A, 0.1% formic acid in water, and solvent B, 0.1% formic acid in acetonitrile, 250 nL of extract were separated. […] High-resolution spectra were calibrated by co-infusion of 2 ng/mL leucine enkephalin lockspray (Waters). Data were quantified using Waters MassLynx software where the AUC was determined by integrating the daughter peak of the parent ion. Concentrations of the unknown compounds were determined by the linear fit of the standard curve. Concentrations were normalized to the culture density, determined via titers, to 10^10 CFU and are reported as the average of three biological replicates.

[4] = pH 7.4 (Table S1), read-out: Solubility Avg. Sol
[5] = pH = 7.4, average of triplicate ± standard deviation, read-out: Avg. Sol
[6] = MG1655, read-out: E. coli K12 MIC90
[7] = No Supplement (N.S.), ATCC 2511 media, 16 h, 37 °C, read-out: E. coli K12 MIC90
[8] = No Supplement (N.S.), ATCC 2511 media, 16 h, 37 °C
[9] = pH = 7.4, average of triplicate ± standard deviation

Structure (SMILES)	half-life (Plasma stability (mouse))	CLint scaled [1]	half-life [1]	CLint scaled [2]	half-life [2]	half-life (Plasma stability (human))	%Soluble (Solubility; pH 7.4 (Table S1))	solubility (Solubility; [4])	solubility (Solubility; [5])	MIC90 (E. coli K12 MG1655; [6])	MIC90 (E. coli K12 MG1655; [7])	E. coli K12 MIC90 (E. coli K12 MG1655; [8])	also measured
O=C(CSc1cnn[nH]1)Nc1ccccc1F [Compound 1]	23.4 ± 0.6 min	7 mL/min/kg	180 ± 12 min	209 mL/min/kg	16.2 ± 0.6 min	2088 ± 18 min	65.2%	16.4 µg/mL and 65.2 µM	16 ± 0.8 µg/mL (≈ 63.4 µM)	12.5 µg/mL (≈ 49.5 µM)	1.6 µg/mL (≈ 6.34 µM)	≤ 3.1 µg/mL	–
O=C(CSc1cnn[nH]1)Nc1ccc(F)cc1 [Compound 2]	150 ± 12 min	4.4 mL/min/kg	282 ± 24 min	87.4 mL/min/kg	39 ± 1.8 min	2180 ± 330 min	73.4%	18.5 µg/mL and 73.4 µM	18 ± 2.3 µg/mL (≈ 71.4 µM)	12.5 µg/mL (≈ 49.5 µM)	3.1 µg/mL (≈ 12.3 µM)	–	–
N#Cc1ccccc1NC(=O)CSc1cnn[nH]1 [Compound 3]	66 ± 1.2 min	5.7 mL/min/kg	222 ± 18 min	50.5 mL/min/kg	67.8 ± 3 min	1380 ± 66 min	73.3%	19 µg/mL and 73.3 µM	–	12.5 µg/mL (≈ 48.2 µM)	3.1 µg/mL (≈ 12 µM)	–	Avg. Sol (Solubility; [9]): 19 ± 1.5 µg/mL
O=C(CSc1cnn[nH]1)Nc1ccccn1 [Compound 9]	162 ± 12 min	7.7 mL/min/kg	162 ± 12 min	80.4 mL/min/kg	42.6 ± 1.2 min	1190 ± 114 min	87.4%	20.6 µg/mL and 87.4 µM	20 ± 0.3 µg/mL (≈ 85 µM)	12.5 µg/mL (≈ 53.1 µM)	1.6 µg/mL (≈ 6.8 µM)	≤ 3.1 µg/mL	–
O=C(CSc1cnn[nH]1)Nc1nccs1 [Compound 25]	798 ± 96 min	5.8 mL/min/kg	216 ± 18 min	29.1 mL/min/kg	120 ± 6 min	1930 ± 324 min	87.3%	21.1 µg/mL and 87.3 µM	–	12.5 µg/mL (≈ 51.8 µM)	3.1 µg/mL (≈ 12.8 µM)	≤ 3.1 µg/mL	Avg. Sol (Solubility; [9]): 21 ± 1.8 µg/mL; AUCinf ([3]; male Balb/c mice): 2807 ng·h/mL; AUC(0-inf) ([3]; male, Balb/c, mouse, iv): 2810 ng·h/mL; AUC(0-t) ([3]; mouse, male Balb/c mice): 2800 ng·h/mL; C0 ([3]; mouse, male Balb/c mice): 7710 ng/mL; clearance ([3]; mouse, male Balb/c mice): 59.4 mL/min/kg; half-life ([3]; mouse, male Balb/c mice, read-out: T(1/2), elimination half-life (converted)): 33 min; Vd ([3]; mouse, male Balb/c mice, read-out: Vss): 1.16 L/kg
O=C(NCCSc1cnn[nH]1)c1ccccc1F [Compound 58]	–	–	–	–	–	–	–	–	–	–	12.5 µg/mL (≈ 46.9 µM)	–	Whole Cell Accumulation in E. coli (E. coli K12): 7.0 ± 1 μM/10^10 CFU; antibacterial activity against E. coli in words (E. coli K12 MG1655): moderate activity
O=C(NCCSc1cnn[nH]1)c1ccc(O)c(O)c1 [Compound 59]	–	–	–	–	–	–	–	–	–	–	50 µg/mL (≈ 178 µM)	–	Whole Cell Accumulation in E. coli (E. coli K12): 1.0 ± 0.1 μM/10^10 CFU; antibacterial activity against E. coli in words (E. coli K12 MG1655): moderate activity
